# Assay results taken from patent US5874235A, “Screening assays for cancer chemopreventative agents” (The Johns Hopkins University, priority 1997, dated 1999).
# Read-outs that look alike come from different tables or passages of the source.
# Experiments:
# [1] = test system: neutral sphingomyelinase in SW480 cell lysates; assay: Neutral sphingomyelinase activity in lysates of treated cells (14C-sphingomyelin hydrolysis); type: cell-based, human; conditions: SUS 50, 200 and 600 μM, 6 to 24 hours
# Procedure: (§1) To test whether the increased ceramide was associated with evidence of augmented sphingomyelinase activity, we measured total sphingomyelin levels after SUS treatment. […] We also measured neutral sphingomyelinase activity in lysates from the treated cells and no differences were found. Neutral sphingomyelinase activity was assayed as described (18). After cell lysis, protein concentrations were determined using the Bradford method (Bio-Rad) and […] cellular protein was used in each assay. Neutral sphingomyelinase activity was determined by measuring the rate of hydrolysis of ^14 C-labelled sphingomyelin (Amersham). SW480 and HCT116 cell lines were treated with SUS (50, 200, and 600 μM) for 6 to 24 hours.
# [2] = test system: neutral sphingomyelinase in HCT116 cell lysates; assay: as above; type: cell-based, human; conditions: for neutral sphingomyelinase activity relative to untreated controls: 200 μM SUS
# Procedure: as §1
# [3] = test system: primary human diploid fibroblast (HDF); assay: Apoptosis in primary fibroblasts; type: cell-based; conditions: 200 μM SUS, 48 hours, read-out: cells that had undergone apoptosis
# Procedure: (§2) This ability of SUS is not limited to colon cancer cells; primary fibroblasts and immortalized keratinocytes can increase ceramide levels and undergo apoptosis in response to SUS. […] Forty-eight hours after exposure to 200 μM SUS greater than 70% of the cells had undergone apoptosis and ceramide levels were 8.2 and 4.7 fold increased in HDF and HaCat cells, respectively. This is consistent with NSAIDs' ability to reduce tumor formation in a variety of tissues (19) and their adverse effects on normal gastric mucosa, but it fails to explain the apparent greater sensitivity of tumor cells. The in vivo effect will likely depend on the local concentration of the NSAID in the incipient tumor microenvironment as well as the target cell's "lipid biostat" (20). The fact that the concentration of SUS is higher in the intestines than in other organs, due to enterohepatic circulation and due to the metabolic activation of sulindac to SUS by gut flora (21), may be responsible for its particular efficacy in intestinal tumorigenesis.
# HCT116 cells = assay: Sphingomyelin levels, bacterial sphingomyelinase method; type: cell-based, human
# Procedure: (§3) FIGS. 4A, 4B, 4C, 4D, 4E and 4F. The role of arachidonic acid in NSAID-mediated apoptosis. […] HCT116 and SW480 cells were treated with the indicated concentrations of SUS or INDO. Arachidonic acid (AA) levels were determined by measuring release of ^3 H-AA into the media as previously described (18). Data are indicated as the mean of three replicates with the error bars corresponding to the standard deviation. In addition, the nature of the released radiolabeled material was evaluated by thin layer chromatography as previously described (28). […] HCT116 and SW480 cells were incubated with ^3 H-choline chloride (0.5 mCi ml^-1, 80 Ci mmol^-1, New England Nuclear) for 48 hours. After labeling, cells were washed with HBSS (Gibco) and treated with SUS or INDO for the indicated times. Sphingomyelin measurements were performed using the bacterial sphingomyelinase method as previously described (18). Sphingomyelin levels at each time point are plotted as a percentage of that in untreated control cells. For each point, the mean of at least two independent experiments is presented with the error bars corresponding to the standard deviations. […] SW480 cells were treated with 200 μM arachidonic acid (AA), SUS (SUS) or behenic acid as a control fatty acid (FA) as indicated. […] SW480 cells were treated with suboptimal doses (100 μM) of arachidonic acid (AA), SUS (SUS), or both (AA+SUS) as indicated. After 48 hours of treatment, apoptosis and ceramide increases were assessed as described for FIGS. 1 and 3, respectively. Ceramide increases (left axis) were expressed as fold increases relative to untreated cells. Apoptosis (right axis) was expressed as percent apoptotic cells minus percent apoptotic cells in untreated cells (5.6%+/-2.4). Data are indicated as the mean of duplicates with the error bars corresponding to the standard deviation.
# as §1
# SW480 cells [4] = assay: as above; type: cell-based, human
# Procedure: as §3, §1
# [5] = test system: primary human diploid fibroblast (HDF); assay: Ceramide levels in primary fibroblasts; type: cell-based; conditions: 200 μM SUS, 48 hours, read-out: increase in ceramide levels
# Procedure: (§4) Ceramide levels were measured using the Escherichia coli diacylglycerol (DAG) kinase assay as previously described (30) with the following modifications. After the initial lipid extraction, phases were broken by adding 2 ml chloroform and 2 ml 1M NaCl and lipids were washed with 1M NaCl prior to drying under nitrogen (32, 33). After solubilization, samples were sonicated for 15 seconds. The DAG reaction was performed for 30 minutes at 25° C. in a 100 μl reaction volume with 3.5 μg DAG kinase (Calbiochem) and […] γ^32 P-ATP (Dupont NEN, 6000 Ci/mmol). After extraction of the labeled lipids, the lower chloroform phase was washed with 1% HCl prior to drying under nitrogen. The solvent mixture for thin layer chromatography was chloroform:acetone:methanol:acetic acid:water (10:4:3:2:1). Samples were quantitated using a Phosphorimager (Molecular Dynamics).
# (§5) This ability of SUS is not limited to colon cancer cells; primary fibroblasts and immortalized keratinocytes can increase ceramide levels and undergo apoptosis in response to SUS. […] Forty-eight hours after exposure to 200 μM SUS greater than 70% of the cells had undergone apoptosis and ceramide levels were 8.2 and 4.7 fold increased in HDF and HaCat cells, respectively. […]
# SW480 cells [6] = type: cell-based, human
# Procedure: FIGS. 1A, 1B and 1C NSAID induce apoptosis in human colorectal cancer cells. In FIG. 1A, HCT116 and SW480 cells were treated with indomethacin (INDO) (300 μM) or SUS (125 μM for HCT116 and 200 μM for SW480 cells). Cells were collected at the indicated times, fixed and stained with Hoechst 33258 (23). The cells were counted and those with fragmented nuclei were scored as apoptotic. In FIG. 1B, HCT116 and SW480 cells were treated with SUS or INDO for 60 hours, harvested and stained as described above. Cells treated with SUS or INDO show the hallmarks of apoptosis.
# This death appeared to be apoptotic, as it was accompanied by nuclear condensation and fragmentation (FIG. 1B) and exposure of phosphatidylserine groups on the cell surface, two hallmarks of apoptosis (11, 12).
# COX in HCT116 cells = assay: COX activity in treated cells; type: cell-based, human
# SW480 cells [7] = type: cell-based, human; conditions: SUS 100 μM
# COX in SW480 cells = assay: COX activity in treated cells; type: cell-based, human
# [8] = test system: immortalized human keratinocytes (HaCat); assay: Ceramide levels in immortalized keratinocytes; type: cell-based; conditions: 48 h, read-out: increase in ceramide levels
# Procedure: as §4, §5
# [9] = test system: immortalized human keratinocytes (HaCat); assay: Apoptosis in immortalized keratinocytes; type: cell-based; conditions: 48 h, read-out: cells that had undergone apoptosis
# Procedure: as §2
smiles,measurement,setting,value
"CSc1ccc(/C=C2/C(C)=C(CC(=O)O)c3cc(F)ccc32)cc1 [SUS, sulindac sulfide]",neutral sphingomyelinase activity in cell lysates,[1],None of these treatments enhanced neutral sphingomyelinase activity
same,neutral sphingomyelinase activity relative to untreated controls,[2]; 6 hours,90%
same,neutral sphingomyelinase activity relative to untreated controls,[2]; 16 hours,92%
same,neutral sphingomyelinase activity in cell lysates,"[2]; SUS 50, 200 and 600 μM, 6 to 24 hours",None of these treatments enhanced neutral sphingomyelinase activity
same,cytotoxicity at 200 µM,[3],> 70%
same,decrease in sphingomyelin levels,HCT116 cells; 48 hours after SUS treatment,40-50%
same,decrease in sphingomyelin levels,HCT116 cells; suboptimal doses of SUS,inadequate to decrease sphingomyelin levels
same,decrease in sphingomyelin levels,SW480 cells [4]; 48 hours after SUS treatment,40-50%
same,decrease in sphingomyelin levels,SW480 cells [4]; suboptimal doses of SUS,inadequate to decrease sphingomyelin levels
same,fold induction at 200 µM,[5],8.2
same,apoptosis,"SW480 cells [6]; 200 μM SUS, 16 hours",the majority of cells had not yet undergone apoptosis
same,apoptosis,"SW480 cells [6]; SUS 200 μM, with or without 10 μM CHX, 48 hours",underwent apoptosis
same,"COX activity, % relative to controls",COX in HCT116 cells; 50 μM SUS,98+/-30%
same,"COX activity, % of controls",COX in HCT116 cells; 125 μM SUS,21+/-15%
same,cell death,SW480 cells [7],not at 100 μM
same,"COX activity, % of controls",COX in SW480 cells; 50 μM SUS,74+/-22%
same,"COX activity, % of controls",COX in SW480 cells; 200 μM SUS,37+/-27%
same,fold induction at 200 µM,[8],4.7
same,cytotoxicity at 200 µM,[9],> 70%
